Structures can show the parent of a compound that is named as a salt.
Row | SMILES | melting point
1 | Cl.O=C(N[C@@H](C(=O)N1CCN(CCc2nccs2)CC1)c1ccccc1)c1ccc2cc[nH]c2c1 | 135 to 142 °C (dec.)
2 | Cl.N#Cc1cc(CCN2CCN(C(=O)[C@H](NC(=O)c3ccc4cc[nH]c4c3)c3ccccc3)CC2)ccn1 | 156 to 169 °C
3 | COc1ccc(C(=O)N[C@@H](C(=O)N2CCN(CCC3CCCC3)CC2)c2ccccc2)cc1 (as salt: hydrochloride) [Example 30, 1-(4-Methoxybenzoyl-D-phenylglycinyl)-4-(2-cyclopentylethyl)piperazine] | 190 to 192 °C
4 | O=C(N[C@@H](C(=O)N1CCN(CCc2ccncc2F)CC1)c1ccccc1)c1ccc2cc[nH]c2c1 [Example 58a, 1-[Indole-6-carbonyl-D-phenylglycinyl]-4-[2-(3-fluoropyridin-4-yl)ethyl]piperazine] | 135 to 145 °C (dec.)
